Experiment in all cases: inhibition of tumour cell growth, NCI panel, 48 h
For assay [1], the system named is MALME-3M melanoma.
Assay [2] concerns SF-295 CNS.
The subject of assay [3] is HOP-62 NSCLC.
Assay [4] has as its system UO-31 renal.
Assay [5] has as its system M14 melanoma.
The subject of assay [6] is SK-MEL-28 melanoma.
Assay [7] relates to BT-549 breast.
Assay [8] has as its system OVCAR-8 ovarian.
The test system of assay [9] is NCI-H460 lung.
For assay [10], the system named is A498 renal.

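These data come from cells grown in 96-well plates and exposed to compound for 48 hours at five concentrations. TGI is the concentration that stops growth completely.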 Where a SMILES comes first, the peptide text is derived from it. Bridges are numbered along the chain shown (N, C = ends).

Regarding `COc1ccc(-c2c(/C=N/OCC(=O)O)c3sc4ccccc4n3c2/C=N/OCC(=O)O)cc1`, the TGI in [1], in assay [2], in assay [3], in [4], in assay [5] and in [6] was above 50 µM in each case. Besides, the TGI in assay [7], in assay [8] and in assay [9] was above 50 µM each time.
Take `COc1ccc(-c2nc(-c3cnccn3)n(C/C=C/c3ccccc3)n2)cc1`: the TGI was 73.4 µM in assay [2]; 60.3 µM in assay [3]; above 100 µM in assay [4]; above 100 µM in assay [5]; above 100 µM in assay [6]; above 100 µM in assay [7]. Further, the TGI in assay [8] and in assay [9] was above 100 µM each time.
Turning to `CCC1OC2(C)CC(C#N)(C#N)C1(C#N)C(=N)O2` (centres undefined), the TGI in assay [1], in assay [2], in assay [4], in assay [10], in assay [5] and in assay [6] was above 100 µM throughout. The same molecule returned a TGI in assay [7] above 100 µM.
Take `CC1(C)CC(=O)C2=C(C1)NC(=S)C(C#N)C2c1ccccc1` (centres undefined): the TGI in [1], in assay [2], in assay [3], in [4], in [5] and in assay [6] was above 100 µM each time. Further, the TGI in assay [7], in assay [8] and in assay [9] was above 100 µM in each case.
Take `COC(=O)C1CCC(=O)NCCCCC(NC(=O)C(N)CC(=O)O)C(=O)N1` (stereo not drawn) (H-Asp-Lys-Glu-OMe; lactam 2-3; configuration not given here): the TGI in [1], in assay [2], in [3], in [4], in [5] and in assay [6] was above 100 µM in each case. Further, the TGI in [7], in assay [8] and in [9] was above 100 µM each time.
`CCOC(=O)c1cnc2n(c1=O)[C@H]1CCCC[C@@H]1N2`: the TGI in assay [1], in assay [2], in assay [4], in assay [10], in [5] and in assay [6] was above 100 µM in each case. Besides, the TGI in assay [7], in [8] and in assay [9] was above 100 µM throughout.
As for `C[C@@H]1C[C@@H]2OC(=O)[C@]3(C)[C@H]2[C@@H](OC3(C)O)[C@]2(C)C(=O)C=C[C@@H]12` (some centres undefined), the TGI in assay [1] is 30.7 µM; in assay [2], above 100 µM; in assay [3], above 100 µM; in [4], above 100 µM; in assay [10] it was 70.6 µM; in assay [5], 41.8 µM. Besides, the TGI in [6] is 45 µM; in assay [7], 23.1 µM; in assay [8], above 100 µM.
With `Cc1c2oc(=O)c(C#N)cc2c2ccccn12`, the TGI in assay [1] is above 100 µM; in assay [2] it was 40.7 µM; in assay [4], above 100 µM; in assay [10], above 100 µM; in assay [5] it was above 100 µM; in assay [6] it was above 100 µM. For the same molecule, the TGI in [7], in assay [8] and in assay [9] was above 100 µM throughout.
Consider `C[C@H](NC(=O)C(C)(Cc1ccc(O)cn1)NC(=O)c1ccccc1)c1ccccc1` (some centres undefined), for which the TGI in assay [1], in assay [2], in [3], in assay [4], in [10] and in [5] was above 100 µM in each case. For the same molecule, the TGI in assay [6], in assay [7] and in assay [8] was above 100 µM each time.
On to `O=C(NNC(=O)c1ccc(Cl)cc1NC(=O)C12CC3CC(CC(C3)C1)C2)c1ccc(Cl)cc1`, for which the TGI in assay [1] was 38.5 µM; in [2], 57 µM; in assay [3], 44.4 µM; in assay [4], 33.7 µM; in [5], 57.6 µM; in assay [7], above 100 µM. Besides, the results for the TGI in [8] and in assay [9] were above 100 µM and 66.3 µM, respectively.
For the molecule `Cc1cc(NS(=O)(=O)c2ccc(Nc3c4ccccc4nc4c(C(=O)NC(CO)(CO)CO)cccc34)cc2)no1`, the TGI in [1] was 92.2 µM; in assay [2], above 100 µM; in [3] it was 68.8 µM; in assay [4], above 100 µM; in assay [10], above 100 µM; in assay [5], above 100 µM. The TGI in assay [6] is above 100 µM; in assay [7] it was 98.9 µM; in [8], above 100 µM.
Regarding `Nc1ccnc2c1ncn2[C@H]1C[C@H](O)[C@@H](CO)O1`, the TGI in [2], in assay [3], in assay [4], in [10], in assay [5] and in assay [6] was above 100 µM in each case. Moreover, the TGI in assay [7], in [8] and in assay [9] was above 100 µM throughout.
Regarding `COc1ccc(/C=C/C(=O)c2cc(CN(C)C)c(O)c(CN(C)C)c2)cc1`, the TGI in assay [1] is 54.2 µM; in [2], 91.1 µM; in assay [3], 56.1 µM; in [4] it was 86.9 µM; in [10] it was 60.3 µM; in [6] it was above 100 µM. The TGI in assay [7] is 72.9 µM; in [8], above 100 µM; in assay [9], 49.3 µM.
For `Clc1cc(Cl)nc(Nc2ccc3c(c2)CCC3)n1`, the TGI in [1] was 93.3 µM; in [2], above 100 µM; in assay [4], above 100 µM; in assay [10], above 100 µM; in [5] it was above 100 µM; in [6], above 100 µM. Further, the TGI in [7], in [8] and in assay [9] was above 100 µM in each case.
With `COc1ccc(Cn2c(=O)c(OS(=O)(=O)C(F)(F)F)c(C)c3cc4ccccc4cc32)cc1`, the TGI in assay [1], in [2], in assay [3], in assay [4], in [5] and in [6] was above 100 µM throughout. The TGI in assay [7], in [8] and in [9] was above 100 µM in each case.
Consider `O=C(Oc1cncc(Cl)c1)c1cc2ccccc2sc1=O`, for which the TGI in assay [1], in assay [2], in assay [3], in [4], in [5] and in assay [6] was above 100 µM throughout. In addition, the TGI in assay [7], in [8] and in assay [9] was above 100 µM in each case.
For `COc1cc(/C=C2\N=C(c3ccccc3)N(c3cc4cc(Sc5ccccc5)ccc4[nH]3)C2=O)ccc1O`, the TGI in assay [1], in assay [4], in assay [5], in assay [6], in assay [7] and in assay [8] was above 50 µM throughout. Also, in assay [9], the TGI is above 50 µM.
Consider `C=C1c2nc3ccccc3n2C=C(c2ccccc2)N1c1ccc(C)cc1`, for which the TGI in assay [1], in assay [2], in assay [4], in assay [10], in assay [5] and in assay [7] was above 100 µM in each case. Moreover, the TGI in assay [8] and in [9] was above 100 µM each time.
As for `COC(=O)c1ccc(C)cc1C1CN=NC12Cc1cccc(C)c1C2=O` (centres undefined), the TGI was 96.6 µM in assay [1]; above 100 µM in [2]; above 100 µM in assay [3]; 78.3 µM in assay [4]; 42.1 µM in assay [5]; 91.8 µM in assay [6]. Also, the TGI in [7] is 91.4 µM; in [8], 47.1 µM; in assay [9], above 100 µM.
As for `Cc1ccc(N=Nc2c(O)ccc3ccccc23)c(C)c1`, the TGI in [2], in [3], in assay [4], in assay [10], in assay [5] and in assay [6] was above 100 µM each time. Further, the TGI in assay [7] and in assay [8] was above 100 µM each time.
Turning to `COC(=O)c1c(CC(=O)OC(C)C)cc2n(c1=O)Cc1c-2nc2ccccc2c1OC`, the TGI in assay [1], in assay [2], in assay [3], in assay [4], in assay [10] and in [5] was above 100 µM throughout. Also, the TGI in [6], in assay [8] and in [9] was above 100 µM throughout.
For `Cc1cc2ccccc2n2c1nc1ccc(O)cc12`, the TGI in assay [1], in assay [2], in [3], in assay [5], in [6] and in assay [7] was above 10 µM in each case. Further, the TGI in [8] and in [9] was above 10 µM each time.
